Test results as given in patent publication US20090054328A1, “Reagents and Methods for Modulating Gene Expression Related to Hypertension” (The Board of Trustees of the University of Illinois, priority 2005, published 2009).

Legend:
[1] = tested on: SHR; assay: Systolic blood pressure (tail-cuff) in SHR, drug given continuously for 3 weeks by osmotic pump; format: in vivo, rat; conditions: continuous 3 weeks
Protocol: The importance of regulating MLCK expression by Ras signaling in vivo was further investigated by treating SHR with U0126 continuously for 3 weeks. U0126 is a specific inhibitor MEK (Favata et al., 1998J. Biol. Chem. 273: 18623-18632), an upstream regulator of ERK in the Ras signaling pathway (Chien & Hoshijima, 2002, Id.). […] In these experiments, Systolic blood pressure (SBP) was measured using tail-cuff sphygmomanometry (IITC Incorporated/Life Sciences Institute, Woodland Hills Calif.). Drugs were delivered via an osmotic pump (DURECT Corporation, Cupertino, Calif.) implanted subcutaneously in the shoulder. The pumps (having a 2 mL capacity at a delivery rate of 2.45 μL/hour) were filled with 13.5 mM U0126 (BIOMOL Research Laboratories, Plymouth Meeting, Pa.) dissolved in 50% DMSO or vehicle alone. Three weeks later, rats were sacrificed and aortas were removed. Some vessels were processed for histology, while other tissue was immediately placed in ice-cold acetone containing 10% trichloroacetic acid (TCA) and 10 mM dithiothreitol (DTT). Endothelial cells were removed by gently rubbing the inside of the vessels with a cell lifter and connective tissue was removed by dissection. The cleaned vessels were then frozen on dry ice and stored at −80° C. for biochemical analysis.
Another experiment was conducted to determine if inhibiting Ras signaling could decrease blood pressure in SHR.

[2] = tested on: WKY rats; conditions: age-matched WKY rats, U0126 3 weeks; returned to baseline within 2 weeks of treatment
Text: The importance of regulating MLCK expression by Ras signaling in vivo was further investigated by treating SHR with U0126 continuously for 3 weeks. U0126 is a specific inhibitor MEK (Favata et al., 1998J. Biol. Chem. 273: 18623-18632), an upstream regulator of ERK in the Ras signaling pathway (Chien & Hoshijima, 2002, Id.). Rats that were 8 weeks old at the start of treatment were studied because blood pressure increases and blood vessels become thicker between 8 and 12 weeks of age (Yamori, 1984, Id). In these experiments, Systolic blood pressure (SBP) was measured using tail-cuff sphygmomanometry (IITC Incorporated/Life Sciences Institute, Woodland Hills Calif.). Drugs were delivered via an osmotic pump (DURECT Corporation, Cupertino, Calif.) implanted subcutaneously in the shoulder. The pumps (having a 2 mL capacity at a delivery rate of 2.45 μL/hour) were filled with 13.5 mM U0126 (BIOMOL Research Laboratories, Plymouth Meeting, Pa.) dissolved in 50% DMSO or vehicle alone. Three weeks later, rats were sacrificed and aortas were removed. Some vessels were processed for histology, while other tissue was immediately placed in ice-cold acetone containing 10% trichloroacetic acid (TCA) and 10 mM dithiothreitol (DTT). Endothelial cells were removed by gently rubbing the inside of the vessels with a cell lifter and connective tissue was removed by dissection. […]

[3] = tested on: ERK-P, MLCK expression and MLC-P
Protocol: Cells or pieces of blood vessels were extracted in buffer containing 9 M urea, 10 mM DTT and 20 mM Tris, pH 8.0. Protein concentrations were measured using the Bradford Protein Assay (BioRad, Richmond, Calif.) and equivalent amounts of protein were subjected to SDS-PAGE or urea-glycerol PAGE, Proteins separated by SDS-PAGE were transferred to nitrocellulose and probed with an antibody to MLCK (de Lanerolle et al., 1981, Proc. Natl. Acad. Sci. 78: 4738-4742), the broad specificity C4 antibody to actin (Lessard, 1988, Cell. Motil. Cytoskeleton. 10: 349-362), antibodies to Rho A or phosphorylated MPasel (Santa Cruz Biotechnology, Santa Cruz, Calif.) or an antibody to phosphorylated ERK½ (Cell Signaling Technology, Beverly, Mass.). Urea-glycerol PAGE was used to separate the unphosphorylated and phosphorylated forms of MLC20, which was then transferred to nitrocellulose and probed with an antibody to MLC20, wherein the stoichiometry of phosphorylation (mol PO4/mol MLC20) was calculated as previously described (Obara et al., 1989, Pflugers. Arch. 414: 134-138). Ail immunoreactive bands were visualized using enhanced chemiluminescence (Amersham Pharmacia Biotech, Piscataway, N.J.) and quantified densitometrically.
(§1) The importance of regulating MLCK expression by Ras signaling in vivo was further investigated by treating SHR with U0126 continuously for 3 weeks. U0126 is a specific inhibitor MEK (Favata et al., 1998J. Biol. Chem. 273: 18623-18632), an upstream regulator of ERK in the Ras signaling pathway (Chien & Hoshijima, 2002, Id.). Rats that were 8 weeks old at the start of treatment were studied because blood pressure increases and blood vessels become thicker between 8 and 12 weeks of age (Yamori, 1984, Id). In these experiments, Systolic blood pressure (SBP) was measured using tail-cuff sphygmomanometry (IITC Incorporated/Life Sciences Institute, Woodland Hills Calif.). Drugs were delivered via an osmotic pump (DURECT Corporation, Cupertino, Calif.) implanted subcutaneously in the shoulder. The pumps (having a 2 mL capacity at a delivery rate of 2.45 μL/hour) were filled with 13.5 mM U0126 (BIOMOL Research Laboratories, Plymouth Meeting, Pa.) dissolved in 50% DMSO or vehicle alone. Three weeks later, rats were sacrificed and aortas were removed. Some vessels were processed for histology, while other tissue was immediately placed in ice-cold acetone containing 10% trichloroacetic acid (TCA) and 10 mM dithiothreitol (DTT). Endothelial cells were removed by gently rubbing the inside of the vessels with a cell lifter and connective tissue was removed by dissection. The cleaned vessels were then frozen on dry ice and stored at −80° C. for biochemical analysis.
ERK-P, MLCK expression and MLC-P were assayed in U0126 SHR as described above.

[4] = tested on: medial smooth muscle layer of aortas and mesenteric arteries
Text: as §1
Blood vessels were also assessed histologically. […] Cross-sections (5 microns thick) were cut, deparaffinized and stained with Gomort's Trichrome. Nuclei were visualized with Weigert's iron hematoxylin. The thickness of the medial layer was quantified using NIH ImageJ 1.32 software (National Institutes of Health, Bethesda, […].).

[5] = tested on: MLCK expression in VSMC; assay: Blocking Ras signaling in vitro in VSMC: MLCK expression and MLC-P by Western blot; format: cell-based, rat
Protocol: In view of the results obtained in Example 3 above, the effect of modulating SRF expression or activity on MLCK expression was assayed. To inhibit SRF activity, an adenovirus (AdSRF-S) lacking exons 4 and 5 was used to express a truncated, dominant negative form of SRF in cells (Davis et al., 2002, Id). Control cells were infected with a virus expressing GFP (AdGFP) at the same multiplicity of infection. In these experiments, VSMC were explanted from aortas of 4 to 7 weeks old SHR or WKY rats as previously described (Ross, 1971, J. Cell. Biol. 50: 172-186) and cultured in Dulbeccos's modified Eagles's medium (DMEM) with 10% fetal bovine serum (FBS). VSMC from WKY rats grown in 6-well plates (90-100% confluent) were infected for 2 hours with either an adenovirus that express a short form of SRF (AdSRF-S) (Davis et al., 2002, Id) or a control virus that expresses GFP (AdGFP). The viruses were washed out and the cells were grown as described above for 48 hours. VSMC were harvested and cell lysates were subjected to western blot analyses.
Dominant negative Ras decreased MLCK mRNA expression in VSMC from SHR (FIG. 4C, inset). To investigate downstream events of Ras signaling, VSMC from SHR were treated with antisense oligonucleotides to ERK, a known member of the Ras signaling pathway. […]

[6] = U0126-treated SHR compared to control

Structure (SMILES): N#CC(=C(/N)Sc1ccccc1N)/C(C#N)=C(\N)Sc1ccccc1N [U0126]
- systolic blood pressure at the end of the 3-week treatment period ([1]; SHR 8 weeks old at start, 13.5 mM U0126 in osmotic pump, vehicle 208.9±4.7): 150.4±4.1 mmHg
- systolic blood pressure at the end of the 3-week treatment period ([1]; SHR 16 weeks old at start, osmotic pump, vehicle 221.6): 181.4±0.89 mmHg
- SBP in normotensive WKY rats [2]: transient decrease
- RhoA expression in aortas ([3]; SHR after U0126 treatment): No significant differences
- phosphorylated myosin phosphorylase-1 (MPasel-P) in aortas ([3]; SHR after U0126 treatment): No significant differences
- ERK phosphorylation (ERK-P) in blood vessels [3, 6]: decreased
- MLC phosphorylation (MLC-P) in blood vessels [3, 6]: decreased
- MLCK expression in blood vessels [3, 6]: decreased
- medial smooth muscle layer in aortas and mesenteric arteries ([4]; SHR receiving U0126 compared to controls): thinner
- total medial area of aortas ([4]; SHR, 3 weeks U0126, NIH ImageJ, vehicle 117.8±3.69): 66.4±2.79 relative units
- total medial area of mesenteric arteries ([4]; SHR, 3 weeks U0126, mean from two animals, vehicle 26.88): 16.0
- MLCK expression in VSMC [5]: decreased
